Test results as given in patent EP3494999A1, “PSMA LIGANDS FOR IMAGING AND ENDORADIOTHERAPY” (Technische Universität München, priority 2017, dated 2019).
Numbered stars: 1 amine (or outer) side, 2 acyl side, 3 side chain; on linkers, the order of the positions; unused ones are H or OH. Square brackets hold non-standard residues; d marks the D form. Side chains are listed from the residue outwards. Peptide text beside a SMILES is read from it. * marks the point of attachment. X2 = O=C(O)CC[C@H](NC(=O)N[C@@H](CCC(=O)N[C@H](CCCN*)C(=O)O)C(=O)O)C(=O)O; X1 = O=C(O)CC[C@H](NC(=O)N[C@@H](CCCCNC(=O)CCCCCCC(=O)*)C(=O)O)C(=O)O; DOTAGA = O=C(O)CN1CCN(CC(=O)O)CCN(C(CCC(=O)*)C(=O)O)CCN(CC(=O)O)CC1; dPhe(4-NH2) = Nc1ccc(C[C@@H](N)C(=O)O)cc1; Phe(4-NH2) = Nc1ccc(C[C@H](N)C(=O)O)cc1; d2Nal = N[C@H](Cc1ccc2ccccc2c1)C(=O)O; Suc = O=C(CCC(=O)[*:2])[*:1]

Assays:
human serum albumin [1] = biological target: T1, human serum albumin (Homo sapiens, UniProt P02768); conditions: literature value of human serum albumin binding (Valko et al. or Yamazaki et al.); cited from earlier work
T1 sequence (P02768 25-609): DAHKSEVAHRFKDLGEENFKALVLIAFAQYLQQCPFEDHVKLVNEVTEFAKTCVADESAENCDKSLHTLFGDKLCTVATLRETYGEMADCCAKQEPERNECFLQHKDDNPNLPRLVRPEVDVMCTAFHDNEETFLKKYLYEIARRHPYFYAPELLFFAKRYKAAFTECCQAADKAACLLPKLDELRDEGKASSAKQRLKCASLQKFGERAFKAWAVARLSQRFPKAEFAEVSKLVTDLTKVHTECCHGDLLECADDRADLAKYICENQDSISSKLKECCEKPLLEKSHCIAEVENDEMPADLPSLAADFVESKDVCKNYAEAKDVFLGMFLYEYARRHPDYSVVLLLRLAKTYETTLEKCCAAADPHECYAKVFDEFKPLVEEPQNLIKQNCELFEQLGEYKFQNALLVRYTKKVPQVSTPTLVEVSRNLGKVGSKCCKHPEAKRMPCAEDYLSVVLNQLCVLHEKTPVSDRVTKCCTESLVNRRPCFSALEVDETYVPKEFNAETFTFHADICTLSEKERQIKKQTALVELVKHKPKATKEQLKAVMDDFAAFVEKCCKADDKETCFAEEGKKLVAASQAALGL

human serum albumin [2] = biological target: T1, human serum albumin; assay: Literature HSA binding of the reference substances used to calibrate the HSA column; conditions: logarithmic K of human serum albumin binding, from the literature HSA%
Protocol: (§1) The mobile phase was freshly prepared for each experiment and only used for one day. The column was kept at room temperature and each run was stopped after detection of the signal to reduce the acquisition time. All substances were dissolved in a 0.5mg/ml concentration in 50% 2-Propanol and 50% 50mM pH 6.9 ammonium acetate buffer. […] All nine reference substances were injected consecutively to establish a non-linear regression with OriginPro 2016G. […] Table 1: Reference substances used for the calibration of the HSA-column.

[3] = assay type: physicochemical
Protocol: To a volume of 500 µL n-octanol, 0.5 to 1.0 MBq of the radiolabeled PSMA inhibitor in 500 µL PBS (pH = 7.4) was added and rigorously vortexted for 3 min (n = 6). For quantitative phase separation, the mixture was centrifuged at 6,000 g for 5 min (Biofuge 15, Heraus Sepatech, Osterode, Germany).

PSMA [4] = biological target: T2, PSMA (Homo sapiens, UniProt Q04609); assay: Internalization of radiolabeled PSMA inhibitors into cells (PMPA blockade); assay type: cell-based; parameters: endogenous in cells; LNCaP is named only for the xenografts; conditions: 177Lu-labeled inhibitors, 37°C; reference basis of the % not stated
T2 sequence (Q04609 whole entry): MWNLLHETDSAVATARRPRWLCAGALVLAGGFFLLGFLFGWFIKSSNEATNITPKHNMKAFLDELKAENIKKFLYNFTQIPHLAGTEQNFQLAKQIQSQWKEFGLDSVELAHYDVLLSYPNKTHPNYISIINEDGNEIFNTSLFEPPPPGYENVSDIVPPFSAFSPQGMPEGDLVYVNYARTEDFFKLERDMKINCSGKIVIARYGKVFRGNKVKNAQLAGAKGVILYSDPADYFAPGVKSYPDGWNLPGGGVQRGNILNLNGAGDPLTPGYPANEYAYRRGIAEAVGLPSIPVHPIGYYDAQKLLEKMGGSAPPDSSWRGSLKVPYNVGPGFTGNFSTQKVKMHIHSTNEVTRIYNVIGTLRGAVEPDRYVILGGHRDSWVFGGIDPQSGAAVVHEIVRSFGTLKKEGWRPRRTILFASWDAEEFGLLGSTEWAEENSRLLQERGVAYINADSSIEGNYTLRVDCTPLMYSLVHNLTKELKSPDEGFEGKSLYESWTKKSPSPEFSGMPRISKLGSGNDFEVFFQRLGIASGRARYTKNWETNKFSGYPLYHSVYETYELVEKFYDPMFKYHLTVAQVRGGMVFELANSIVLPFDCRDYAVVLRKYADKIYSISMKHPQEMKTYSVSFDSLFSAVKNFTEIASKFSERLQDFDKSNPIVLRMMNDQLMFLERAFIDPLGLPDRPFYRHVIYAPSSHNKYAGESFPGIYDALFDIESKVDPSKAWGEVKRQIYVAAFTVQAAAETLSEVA
Protocol: The ^177Lu-labeled compounds, for in vitro studies, were prepared as previously described (Sosabowski, J.K. and S.J. Mather, Conjugation of DOTA-like chelating agents to peptides and radiolabeling with trivalent metallic isotopes. Nat. Protocols, 2006. 1(2): p. 972-976) with minor modifications and used without further purification. In short, to a reaction volume of 10 µL 1.0 M NH4OAc buffer pH = 5.9 was added 0.75 to 1.0 nmol tracer (7.5 to 10 µL), 10 to 40 MBq ^177LuCl3 (Specific Activity (AS) > 3000 GBq/mg, 740 MBq/mL, 0.04 M HCl, ITG, Garching, Germany) and finally filled up to 100 µL with trace-pure Water (Merck, Darmstadt, Germany). The reaction mixture was heated for 30 min at 95°C and the radiochemical purity was determined using Radio-TLC.
[…] Each well was treated with either 25 µL of either DMEM-F12 (5% BSA) or a 100 µM PMPA solution for blockade. Next, 25 µL of the respective ^68Ga-and ^177Lu-labeled PSMA inhibitors (2.0 nM / 5.0 nM) was added and the cells incubated at 37°C for 5, 15, 30 and 60 min, respectively. The experiment was terminated by placing the 24-well plate on ice for 3 min and consecutive removal of the medium. Each well was rinsed with 250 µL HBSS and the fractions from these first two steps combined, representing the amount of free radioligand. Removal of surface bound activity was accomplished by incubation of the cells with 250 µL of ice-cold PMPA (10 µM in PBS) solution for 5 min and rinsed again with another 250 µL of ice-cold PBS. The internalized activity was determined by incubation of the cells in 250 µL 1.0 M NaOH and the combination with the fraction of a subsequent wash step with 250 µL 1.0 M NaOH. Each experiment (control and blockade) was performed in triplicate for each time point. Free, surface bound and internalized activity was quantified in a γ-counter.

[5] = biological target: T3, human serum albumin (HSA) (Homo sapiens, UniProt P02768); assay type: in vitro ADME
T3 construct: purchased Daicel Chemical Industries, purchased from Chiral Technologies Europe (France)
T3 sequence (P02768 25-609): as the sequence (P02768 25-609) above
Excerpt: The Fmoc-(9-fluorenylmethoxycarbonyl-) and all other protected amino acid analogs were purchased from Bachem (Bubendorf, Switzerland) or Iris Biotech (Marktredwitz, Germany). […] The tritylchloride polystyrene (TCP) resin was obtained from PepChem (Tubingen, Germany). Chematech (Dijon, France) delivered the chelator DOTAGA-anhydride. All necessary solvents and other organic reagents were purchased from either Alfa Aesar (Karlsruhe, Germany), Sigma-Aldrich (Munich, Germany) or VWR (Darmstadt, Germany). Solid phase synthesis of the peptides was carried out by manual operation using an Intelli-Mixer syringe shaker (Neolab, Heidelberg, Germany). […] Analysis of the peptides was performed by applying different gradients of 0.1% (v/v) trifluoroacetic acid (TFA) in H2O (solvent A) and 0.1% TFA (v/v) in acetonitrile (MeCN) (solvent B) with a constant flow of 1 mL/min (specific gradients are cited in the text). […] Human serum albumin (HSA) binding was determined using a Chiralpak HSA 50 x 3 mm 5µm Analytical Column connected to a Chiralpak HSA 10 x 3 mm 5µm Guard Cartridge (Daicel Chemical Industries) purchased from Chiral Technologies Europe (France). Nonlinear regression for the HSA binding was performed using OriginPro 2016G. Both retention times tR as well as the capacity factors K' are cited in the text. […] Radioactivity was detected through connection of the outlet of the UV-photometer to a Nal(TI) well-type scintillation counter from EG&G Ortec (Munich, Germany). […] ESI-mass spectra were acquired on an expression^L CMS mass spectrometer (Advion Ltd., Harlow, UK) and on a Varian 500-MS IT mass spectrometer (Agilent Technologies, Santa Clara, USA). For the HSA binding experiment a Chiralpak HSA 50 x 3 mm 5µm Analytical Column, (Daicel Chemical Industries, LTD) connected to a Chiralpak HSA 10 x 3 mm 5µm Guard Cartridge (Daicel Chemical Industries; Chiral Technologies Europe) was used.
as §1

PSMA [6] = biological target: T2, PSMA; assay: Determination of IC50: competitive binding against ([125I]I-BA)KuE on cells; parameters: endogenous in cells; LNCaP is named only for the xenografts; conditions: natLu complexes; displacement of ([125I]I-BA)KuE, 60 min on ice, HBSS (1% BSA)
Protocol: The corresponding ^natLu^III-complexes were prepared from a 2 mM aqueous solution of the PSMA inhibitor with a 2.5 molar excess of LuCl3 (20 mM solution), heated to 95 °C for 30 min. After cooling, the ^natLu^III-chelate formation was confirmed using HPLC and MS. […] Calculated monoisotopic mass (C67H92N11O23 Lu) = 1,593.6 found: m/z = 1,595.0 [M+H]^+, 798.2 [M+2H]^2+. [^natLu]DOTAGA-(4-NH2)f-y-nal-k-KuE ([^natLu]PSMA-5): HPLC (10 to 60% B in 15 min.): tR = 9.0 min K' = 3.5. Calculated monoisotopic mass (C76H102N13O24 Lu) = 1,755.7 found: m/z = 1,756.4 [M+H]^+, 879.0 [M+2H]^2+. [^natLu]DOTAGA-(4-NH2)F-y-nal-k-KuE ([^natLu]PSMA-6): HPLC (10 to 60% B in 15 min.): tR = 9.1 min K' = 3.6. Calculated monoisotopic mass (C76H102N13O24 Lu) = 1,755.7 found: m/z = 1,756.6 [M+H]^+, 878.8 [M+2H]^2+. [^natLu]DOTAGA-y-nal-k(Suc-(HO-δ-orn-γ-EuE))-OH ([^natLu]PSMA-7): HPLC (10 to 60 % B in 15 min): tR = 7.8 min K' = 2.9. Calculated monoisotopic mass (C67H89N12O26 Lu): 1,652.5 found: m/z = 1,653.9 [M+H]^+. [^natLu]DOTAGA-(4-NH2)f-y-nal-k(Suc-(HO-δ-orn-γ-EuE))-OH ([^natLu]PSMA-8): HPLC (10 to 60 % B in 15 min): tR = 7.3 min K' = 2.7. Calculated monoisotopic mass (C67H99N14O27Lu): 1,814.6 found: m/z = 1,815.9 [M+H]^+, 908.3 [M+2H]^2+. [^natLu]DOTAGA-(4-NH2)F-y-nal-k(Suc-(HO-δ-orn-γ-EuE))-OH ([^natLu]PSMA-9): HPLC (10 to 60 % B in 15 min): tR = 7.2 min K' = 2.6. Calculated monoisotopic mass (C67H99N14O27Lu): 1,814.6 found: m/z = 1,815.6 [M+H]^+, 908.3 [M+2H]^2+. [^natLu]DOTAGA-y-nal-k(Glut-(l-f)-KuE) ([^natLu]PSMA-10): HPLC (25 to 55% B in 15 min): tR = 10.6 min K' = 4.9. Calculated monoisotopic mass (C73H94IN12O24Lu): 1,825.5 found: m/z = 1,826.5 [M+H]^+, 913.8 [M+2H]^2+. [^natLu]DOTAGA-(4-NH2)f-y-nal-k(Glut-(l-f)-KuE) ([^natLu]PSMA-11): HPLC (10 to 60% B in 20 min): tR = 9.7 min K' = 3.9. Calculated monoisotopic mass (C82H104IN14O25Lu): 1,986.6 found: m/z = 1,987.5 [M+H]^+, 994.3 [M+2H]^2+.
The reaction solution was incubated for 10 min at RT, loaded on a cartridge and rinsed with 10 mL water (C18 Sep Pak Plus cartridge, preconditioned with 10 mL MeOH and 10 mL water). After elution with 2.0 mL of a 1:1 mix (v/v) of EtOH/MeCN, the radioactive solution was evaporated to dryness under a gentle nitrogen stream and treated with 200 µL TFA for 30 min with subsequent evaporation of TFA.
After removal of the culture medium, the cells were treated once with 500 µL of HBSS (Hank's balanced salt solution, Biochrom, Berlin, Germany, with addition of 1% bovine serum albumin (BSA)) and left 15 min on ice for equilibration in 200 µL HBSS (1% BSA). […] All experiments were performed at least three times for each concentration. After 60 min incubation on ice, the experiment was terminated by removal of the medium and consecutive rinsing with 200 µL of HBSS. The media of both steps were combined in one fraction and represent the amount of free radioligand. Afterwards, the cells were lysed with 250 µL of 1.0 M NaOH and united with the 200 µL HBSS of the following wash step. Quantification of bound and free radioligand was accomplished in a γ-counter.

Internalization [%] (PSMA [4])	IC50 (PSMA [6]) [nM]	SMILES	Lit. HSA% (human serum albumin [1]) [%]	Log K HSA (human serum albumin [2])	logP [3]	HSA [%] [5] [%]
216.2 ± 9.2	3.1 ± 1	O=C(O)CC[C@H](NC(=O)N[C@@H](CCC(=O)N[C@H](CCCNC(=O)CCC(=O)NCCCC[C@@H](NC(=O)[C@@H](Cc1ccc2ccccc2c1)NC(=O)[C@@H](Cc1ccc(O)cc1)NC(=O)CCC(C(=O)O)N1CCN(CC(=O)O)CCN(CC(=O)O)CCN(CC(=O)O)CC1)C(=O)O)C(=O)O)C(=O)O)C(=O)O (stereo partly drawn) [[^nat/177Lu]PSMA-7, DOTAGA-y-nal-k(Suc-(HO-δ-orn-γ-EuE))-OH, metal not drawn, reference compound]	–	–	–	–
207.3 ± 8.5	2.5 ± 0.6	Nc1ccc(C[C@@H](NC(=O)CCC(C(=O)O)N2CCN(CC(=O)O)CCN(CC(=O)O)CCN(CC(=O)O)CC2)C(=O)N[C@H](Cc2ccc(O)cc2)C(=O)N[C@H](Cc2ccc3ccccc3c2)C(=O)N[C@H](CCCCNC(=O)CCC(=O)NCCC[C@@H](NC(=O)CC[C@H](NC(=O)N[C@@H](CCC(=O)O)C(=O)O)C(=O)O)C(=O)O)C(=O)O)cc1 (stereo partly drawn) [[^nat/177Lu]PSMA-8, DOTAGA-(4-NH2)f-y-nal-k(Suc-(HO-δ-orn-γ-EuE))-OH, metal not drawn] ({DOTAGA}-[dPhe(4-NH2)][dY][d2Nal][dK]([Suc-X2])-OH)	–	–	-4.02 ± 0,25	–
–	2.5 ± 0.6	Nc1ccc(C[C@H](NC(=O)CCC(C(=O)O)N2CCN(CC(=O)O)CCN(CC(=O)O)CCN(CC(=O)O)CC2)C(=O)N[C@H](Cc2ccc(O)cc2)C(=O)N[C@H](Cc2ccc3ccccc3c2)C(=O)N[C@H](CCCCNC(=O)CCC(=O)NCCC[C@@H](NC(=O)CC[C@H](NC(=O)N[C@@H](CCC(=O)O)C(=O)O)C(=O)O)C(=O)O)C(=O)O)cc1 (stereo partly drawn) [[^nat/177Lu]PSMA-9, DOTAGA-(4-NH2)F-y-nal-k(Suc-(HO-δ-orn-γ-EuE))-OH, metal not drawn] ({DOTAGA}-[Phe(4-NH2)][dY][d2Nal][dK]([Suc-X2])-OH)	–	–	-4.01 ± 0.11	–

More lines, now with the values behind:

SMILES	Internalization [%] (PSMA [4])	IC50 (PSMA [6]) [nM]	Lit. HSA% (human serum albumin [1]) [%]	Log K HSA (human serum albumin [2])	logP [3]	HSA [%] [5] [%]
Nc1ccccc1 [Aniline]	–	–	14.06	-0.79	–	–
O=C(O)c1ccccc1 [Benzoic Acid]	–	–	34.27	-0.29	–	–
CCCN(CCC)S(=O)(=O)c1ccc(C(=O)O)cc1 [Probenecid]	–	–	95.00	–	–	–
O=C(O)CC[C@H](NC(=O)N[C@@H](CCCCNC(=O)CCCCCCC(=O)NCCCC[C@@H](NC(=O)[C@@H](Cc1ccccc1)NC(=O)[C@@H](Cc1ccc(O)c(I)c1)NC(=O)CCC(C(=O)O)N1CCN(CC(=O)O)CCN(CC(=O)O)CCN(CC(=O)O)CC1)C(=O)O)C(=O)O)C(=O)O (stereo partly drawn) [[^nat/177Lu]PSMA-1, DOTAGA-(l-y)-f-k-KuE, metal not drawn, reference compound]	75.5 ± 1.6	–	–	–	-4.12 ± 0.1	78.6
Nc1ccc(C[C@@H](NC(=O)CCC(C(=O)O)N2CCN(CC(=O)O)CCN(CC(=O)O)CCN(CC(=O)O)CC2)C(=O)N[C@H](Cc2ccc(O)cc2)C(=O)N[C@H](Cc2ccc3ccccc3c2)C(=O)N[C@H](CCCCNC(=O)CCCCCCC(=O)NCCCC[C@H](NC(=O)N[C@@H](CCC(=O)O)C(=O)O)C(=O)O)C(=O)O)cc1 (stereo partly drawn) [[^nat/177Lu]PSMA-5, DOTAGA-(4-NH2)f-y-nal-k-KuE, metal not drawn] ({DOTAGA}-[dPhe(4-NH2)][dY][d2Nal][dK](X1)-OH)	111.3 ± 11.1	5.8 ± 1	–	–	-4.11 ± 0.06	–
